“Also recorded” adds a separate entry of the source.
Key:
FPR1 and FPR2 = conditions: cited from earlier work
hFPR1 = assay: Ca2+ imaging, HEK293T transiently transfected with hFPR1; format: cell-based, human; conditions: n = 3, N = 1; for threshold for minimal detectable activation, hFPR1: Ca2+ imaging; for sensitivity relative to full-length Aβ1-42, hFPR1: concentration response curves
hFPR2 = assay: Ca2+ imaging, HEK293T transiently transfected with hFPR2; format: cell-based, human; conditions: n = 3, N = 1; for threshold for minimal detectable activation, hFPR2: Ca2+ imaging, transfected HEK293T + Gα16, Calbryte 520, C1 buffer pH 7.2; for hFPR2 response concentration: concentration response curves
Protocol: (§1) All peptides were thawed at room temperature approximately 1 h before each functional experiment, as this time was needed to prepare the compound plates for each measurement.
(§2) HEK293T cells (ATCC) were cultured in Dulbecco’s Modified Eagle’s medium (DMEM, Biowest) supplemented with 10% (v/v) heat-inactivated fetal calf serum (FCS, Pan Biotech), 1 unit/ml penicillin-streptomycin (Biowest), and 2 mM L-glutamine (Biowest) until 80% confluence. For transfection, approximately 2000 cells were seeded in each well of poly-D-lysine–coated (PDL) (10 μg/ml in PBS, Sigma) black optical 96-well μCLEAR-plates (Greiner Bio-One). Cells were transfected after 24 h using jetPEI (Polyplus-transfection SA) with 0.125 μg of DNA plasmids encoding the respective receptors and equal amounts of a plasmid encoding the G protein subunit Gα16 since this subunit is needed to trigger FPR-dependent calcium signals in HEK293 cells ([50], [70]). The medium of transfected cells was changed 24 h after transfection. For mock transfections, the proportion of the FPR-containing plasmids were substituted by an empty pcDNA3.1 vector.
(§3) Cell population responses of transfected HEK293T cells and U87 cells were recorded using a Flexstation III microplate reader (Molecular Devices). Briefly, cells were incubated with 2 μM Calbryte 520 AM (AAC Bioquest) for 2 h at room temperature in C1 assay buffer with 5 mM glucose (Carl Roth). Before each experiment, cells were rinsed three times with C1. Experiments with HEK293T cells were conducted 48 h after transfection, while experiments with U87 cells were performed 24 h after seeding. Acquisition of baseline fluorescence was performed for 25 s before ligand application, and cell population response was measured for 125 s after application.

mFpr1 = assay: Ca2+ imaging, HEK293T transiently transfected with mFpr1; format: cell-based, mouse; conditions: n = 3, N = 1; for threshold for minimal detectable activation, mFpr1: Ca2+ imaging, transfected HEK293T + Gα16, Calbryte 520, C1 buffer pH 7.2; for sensitivity relative to full-length Aβ1-42, mFpr1: concentration response curves
mFpr2 = assay: Ca2+ imaging, HEK293T transiently transfected with mFpr2; format: cell-based, mouse; conditions: n = 3, N = 1; for threshold for minimal detectable activation, mFpr2: Ca2+ imaging, transfected HEK293T + Gα16, Calbryte 520, C1 buffer pH 7.2; for mFpr2 response concentration: concentration response curves
Protocol: as §1, §2, §3

hFPR1, hFPR2, hFPR3 = assay: Ca2+ imaging, human FPRs taken together; format: cell-based; conditions: transfected HEK293T
hFPR3 = assay: Ca2+ imaging, HEK293T transiently transfected with hFPR3; conditions: for threshold for minimal detectable activation, hFPR3: Ca2+ imaging, transfected HEK293T + Gα16, Calbryte 520, C1 buffer pH 7.2, n = 3, N = 1; for activation of hFPR3: 10 nM, n = 1, N = 3 (Fig. S6C)
Protocol: as §1, §2, §3

U87 cells [1] = assay: Chemotaxis assay, U87 cells; format: cell-based, human; conditions: n = 3, N = 1; for migration (chemotaxis) of U87 cells: IncuCyte S3, ClearView plate, 24 h, 0.5% FCS; for migration of U87 cells towards receptor subtype-specific activator: 10 nM
Protocol: Cell migration assays were performed and analyzed with an IncuCyte S3 Life Cell Imaging System (EssenBio Science). […] Approximately, 1000 cells were placed into the top chamber of each well of a 96-well ClearView Plate (EssenBioscience). Chemoattractants were mixed in 200 μl medium and then placed in the corresponding bottom chambers. Image acquisition was performed hourly for 24 h on both sides of a membrane separating the top and bottom chambers. Subsequent analysis was performed using the IncuCyte S3 software.

human and mouse FPRs [2] = assay: Ca2+ imaging, FPR-transfected HEK293T (several human and mouse FPRs taken together); format: cell-based; conditions: n = 3, N = 1; for Ca2+ responses on FPRs: 5 μM
Protocol: as §1, §2, §3

mouse and human FPR1 = assay: Ca2+ imaging, HEK293T with mouse and human FPR1 taken together; format: cell-based
glial cells = conditions: cited from earlier work
Text: In summary, our study provides a systematic overview over the capability of different mouse and human FPRs to interact with Aβ in different buffer systems. To our knowledge, we are the first to report an activation of hFPR3 by Aβ and the first to identify N-abridged Aβ fragments as activators of FPRs.

U87 cells [3] = assay: Ca2+ imaging, U87 cells; conditions: for Ca2+ response of U87 cells / U87 concentration response curve compared with FPR-transfected HEK293T cells: n = 3, N = 1; for Ca2+ response of U87 cells to receptor subtype-specific activator: 10 nM, n = 3, N = 3
Protocol: Peptides in HBSS or Tris–NaCl were dissolved in an ultrasonic bath as described above. […] The Aβ17-40 peptide used throughout the main text was purchased from Anaspec/MoBiTec and validated with Aβ17-40 peptides from Sigma-Aldrich and Synpeptide. Aβ11-40 was obtained from Peptides&Elephants. […] Tert-Boc-FLFL (tBoc2) was purchased from Bachem and dissolved in DMSO at 30 mM. f-MLFYFS (Psy-SP6) and f-MAMKKL (Sal-SP4) were obtained from VCPBIO and dissolved at 10 mM in DMSO (Psy-SP6) or at 1 mM in C1 (SP4), respectively. WKWMVm-NH2 and WKWMVm-CHO were purchased from Proteogenix and VCPBIO, respectively, and dissolved as 1 mM stock solutions in C1. fMLF was purchased from Sigma-Aldrich and also dissolved at 1 mM in C1. All peptides were thawed at room temperature approximately 1 h before each functional experiment, as this time was needed to prepare the compound plates for each measurement.
U87 MG cells (CLS) were cultured in Minimum Essential medium (Biowest) supplemented with 10% (v/v) heat-inactivated FCS (Pan Biotech), 1 unit/ml penicillin-streptomycin (Biowest), 2 mM L-glutamine (Biowest), and 1 unit/ml non-essential amino acids (Biowest) until 50 to 60% confluence. For calcium imaging and immunostaining, on average 2500 cells were seeded in each well of PDL-coated (10 μg/ml in PBS, Sigma) black optical 96-well μCLEAR-plates (Greiner Bio-One).
as §3

human and mouse FPRs [4] = conditions: control ligand, 10 μM; cited from earlier work
Protocol: Cell population responses of transfected HEK293T cells and U87 cells were recorded using a Flexstation III microplate reader (Molecular Devices). Briefly, cells were incubated with 2 μM Calbryte 520 AM (AAC Bioquest) for 2 h at room temperature in C1 assay buffer with 5 mM glucose (Carl Roth). Before each experiment, cells were rinsed three times with C1. Experiments with HEK293T cells were conducted 48 h after transfection, while experiments with U87 cells were performed 24 h after seeding.

U87 cells [5] = assay: Ca2+ imaging cross-desensitization, U87 cells; format: cell-based, human; conditions: n = 1, N = 3
Text: Left: Representative image of gel electrophoresis after reverse transcription polymerase chain reaction with primers for all hFPRs. Right: Quantification of complementary DNA for all FPRs obtained through reverse transcription quantitative polymerase chain reaction, n = 5, N = 2. One-way ANOVA test, Dunnett post hoc test. B, left: representative immunocytochemistry staining of U87 cells and transfected HEK293T cells with FPR subtype–specific antibodies (red) and nuclei staining (blue). For visibility, brightness and contrast were adjusted for U87 cells and HEK293T cells differently; for absolute intensity comparison pictures with equal settings for exposure time, brightness and contrast pictures are shown in Figure S5. Scale bars indicate 100 μm. Right: Quantification of the mean FPR staining in U87 cells (green) in comparison to FPR-transfected HEK293T cells (red). Analysis was performed on images acquired with the same settings. n = 2, N = 5 for U87 cells and n = 2, N = 2 for HEK293T cells. One-way ANOVA test, Tukey post hoc test. […] One-way ANOVA test, Dunnett post hoc test. […] Representative […] traces (left) and mean Ca^2+ peak responses (right) to a secondary Aβ17-40 stimulus after pre-application of SP4 or SP6 as a first stimulus, n = 1, N = 3; t test. […] One-way ANOVA test, Tukey post hoc test. All Error bars, S.D. ∗p ≤ 0.05, ∗∗p ≤ 0.01, ∗∗∗p ≤ 0.001; ns, no significance. […]

[6] = transfected HEK293T + Gα16, Calbryte 520, assay buffer C1 pH 7.2, Flexstation III, peptide stock 5 mM in DMSO

C[S+](C)[O-] [DMSO, dimethyl sulfoxide]
agonism at FPR1 and FPR2 (FPR1 and FPR2): agonist for FPR1 and FPR2

Aβ1-40: Amyloid beta peptide, human WT sequence, from Anaspec/MoBiTec
threshold for minimal detectable activation, hFPR1 (hFPR1; transfected HEK293T + Gα16, Calbryte 520, assay buffer C1 pH 7.2, peptide stock 30 μM in C1): 3000 nM | threshold for minimal detectable activation, hFPR2 (hFPR2): 3 µM | threshold for minimal detectable activation, mFpr1 (mFpr1): 500 nM | threshold for minimal detectable activation, mFpr2 (mFpr2): 5 µM | response of hFPRs (in addition to hFPR2) (hFPR1, hFPR2, hFPR3): all other hFPRs also responded | threshold for minimal detectable activation, hFPR3 (hFPR3): 3 µM

Aβ11-40: N-abridged naturally occurring Aβ variant, from Peptides&Elephants
threshold for minimal detectable activation, hFPR1 (hFPR1; [6]): 100 nM | sensitivity relative to full-length Aβ1-42, hFPR1 (hFPR1): more than 10 fold | threshold for minimal detectable activation, hFPR2 (hFPR2): 1 µM | hFPR2 response concentration (hFPR2): only responded to micromolar concentrations | threshold for minimal detectable activation, mFpr1 (mFpr1): 30 nM | sensitivity relative to full-length Aβ1-42, mFpr1 (mFpr1): more than 10 fold | threshold for minimal detectable activation, mFpr2 (mFpr2): 1 µM | mFpr2 response concentration (mFpr2): only responded to micromolar concentrations | migration (chemotaxis) of U87 cells (U87 cells [1]): Aβ11-40 but not Aβ17-40 evoked cell migration; also recorded: only Aβ11-40 but not Aβ17-40 induced migration; also recorded: Aβ11-40– but not Aβ17-40–induced chemotaxis of U87 cells | Ca2+ responses on FPRs (human and mouse FPRs [2]): elicited responses on all FPRs that we could previously activate with the full-length Aβ1-42 | activation of mouse and human FPR1 (in words) (mouse and human FPR1): very potent activators of mouse and human FPR1, acting at nanomolar concentrations; also recorded: drastically lower concentrations than longer peptides | response of hFPRs (in addition to hFPR2) (hFPR1, hFPR2, hFPR3): all other hFPRs also responded | activation of glial cells (glial cells): shown to activate glial cells | Ca2+ response of U87 cells (U87 cells [3]): induced a strong calcium flux; also recorded: pronounced activation of U87 cells | U87 concentration response curve compared with FPR-transfected HEK293T cells (U87 cells [3]): clear correlation with the hFPR1 response; also recorded: remarkably similar to hFPR1 | threshold for minimal detectable activation, hFPR3 (hFPR3): 1 µM

Aβ17-40: N-abridged naturally occurring Aβ variant, from Anaspec, validated with Sigma-Aldrich and Synpeptide peptides (LVFFAEDVGSNKGAIIGLMVGGVV; Amyloid-beta protein 40; UniProt P05067 688-711, looked up, fragment)
threshold for minimal detectable activation, hFPR1 (hFPR1; [6]): 100 nM | sensitivity relative to full-length Aβ1-42, hFPR1 (hFPR1): more than 10 fold | threshold for minimal detectable activation, hFPR2 (hFPR2): 1 µM | hFPR2 response concentration (hFPR2): only responded to micromolar concentrations | threshold for minimal detectable activation, mFpr1 (mFpr1): 30 nM | sensitivity relative to full-length Aβ1-42, mFpr1 (mFpr1): more than 10 fold | threshold for minimal detectable activation, mFpr2 (mFpr2): 1 µM | mFpr2 response concentration (mFpr2): only responded to micromolar concentrations | migration (chemotaxis) of U87 cells (U87 cells [1]): Aβ11-40 but not Aβ17-40 evoked cell migration; also recorded: only Aβ11-40 but not Aβ17-40 induced migration; also recorded: Aβ11-40– but not Aβ17-40–induced chemotaxis of U87 cells | susceptibility of FPR responses to manufacturer-dependent effects (human and mouse FPRs [2]; 5 μM Aβ17-40 from Anaspec, Synpeptide, Sigma-Aldrich): less susceptible to manufacturer-dependent effects than full length Aβ | Ca2+ responses on FPRs (human and mouse FPRs [2]): elicited responses on all FPRs that we could previously activate with the full-length Aβ1-42 | activation of mouse and human FPR1 (in words) (mouse and human FPR1): very potent activators of mouse and human FPR1, acting at nanomolar concentrations; also recorded: drastically lower concentrations than longer peptides | response of hFPRs (in addition to hFPR2) (hFPR1, hFPR2, hFPR3): all other hFPRs also responded | activation of glial cells (glial cells): shown to activate glial cells | Ca2+ response of U87 cells (U87 cells [3]): induced a strong calcium flux; also recorded: pronounced activation of U87 cells | U87 concentration response curve compared with FPR-transfected HEK293T cells (U87 cells [3]): clear correlation with the hFPR1 response; also recorded: remarkably similar to hFPR1 | threshold for minimal detectable activation, hFPR3 (hFPR3): 1 µM

Aβ17-43: Aβ fragment of earlier studies (LVFFAEDVGSNKGAIIGLMVGGVVIAT; Amyloid-beta protein 42; UniProt P05067 688-714, looked up, fragment)
activation of human glial cells (glial cells; human glial cells): only lead to a partial activation of human glial cells

WKWMVm-CHO
activation of human and mouse FPRs (human and mouse FPRs [4]): potent activators of all three human and mouse FPRs

WKWMVm-NH2
activation of human and mouse FPRs (human and mouse FPRs [4]): potent activators of all three human and mouse FPRs

f-MAMKKL [SP4, reference compound]
migration of U87 cells towards receptor subtype-specific activator (U87 cells [1]): do not respond to the hFPR2 agonist SP4; also recorded: not towards the FPR2-specific SP4 | effect of pre-application on U87 Ca2+ response to secondary Aβ17-40 stimulus (U87 cells [5]): not influenced by pre-application of the FPR2-specific agonist SP4 | Ca2+ response of U87 cells to receptor subtype-specific activator (U87 cells [3]): not to the hFPR2-specific SP4 stimulus | activation of hFPR3 (hFPR3): would not activate hFPR3

f-MLFYFS [SP6, reference compound]
migration of U87 cells towards receptor subtype-specific activator (U87 cells [1]): migrate towards the hFPR1-stimulus SP6; also recorded: only migrated towards the FPR1-specific SP6 | effect of pre-application on U87 Ca2+ response to secondary Aβ17-40 stimulus (U87 cells [5]): abolished by the FPR1 activator SP6; also recorded: absent after pre-application of the FPR1-specific agonist SP6 | Ca2+ response of U87 cells to receptor subtype-specific activator (U87 cells [3]): U87 cells respond to the potent hFPR1 activator SP6; also recorded: only responded to the hFPR1-specific SP6 stimulus with a calcium signal | activation of hFPR3 (hFPR3): would not activate hFPR3

Reference: article PMC9694488, “Amyloid beta and its naturally occurring N-terminal variants are potent activators of human and mouse formyl peptide receptor 1” (The Journal of Biological Chemistry, 2022)
